In data set [1] the test system is anesthetized male Sprague-Dawley rats. Put plainly: Inotropic effect in vivo in anaesthetized rats (stroke work, heart rate). The conditions noted are these: for heart rate / increase in strokework: i.v. infusion; for heart rate: 0.2 and 0.5 nmol/kg/min; for increase in strokework: at a given infusion rate (up to 2.5 nmol/kg/min), 40% set as end point.
Source text: The rats were exposed to 5% isoflurane in 1:2 N2O:O2 until anesthesia were established.
A catheter was inserted into the left femoral vein for drug administration and a pressure-volume catheter was inserted into the left ventricle via the right carotid artery. After instrumentation, isoflurane was delivered in pure O2 during the experiment.
The horizontal line marks 40% increase in stroke work, which was defined as the maximal increase that should be obtained during the experiment.
Another data set addresses T1, human GLP-1R (Homo sapiens, UniProt P43220).
T1 construct: expressed in transfected cells; host or cells: HEK293
In words: cAMP formation in HEK293 cells expressing human GLP-1R. Type of data set: cell-based. The conditions noted are these: 15 min at 37° C. Put shortly: (§1)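 Test peptides at rising concentrations were incubated 15 min at 37° C in Tyrode buffer containing 6 mM glucose and 100 μM IBMX.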

A further data set has as its target T2, human glucagon receptor (Homo sapiens, UniProt P47871).
T2 construct: expressed in transfected cells; host or cells: HEK293
Put plainly: cAMP formation in HEK293 cells expressing the human glucagon receptor. Type of data set: cell-based. Conditions: 15 min at 37° C., read-out: EC50 (nM) GuR. The method in brief: as §1

Data set [2] concerns isolated working hearts from control and insulin-resistant JCR:LA-cp rats. Put plainly: Inotropic effect and energy state in isolated working heart model. Also noted: species or system rat. The conditions noted are these: compared with vehicle perfused hearts.
Procedure: Following perfusions, high energy phosphate nucleotide concentrations were measured by high performance liquid chromatography (HPLC) (Ally, A and Park, G. Rapid determination of creatine, phosphocreatine, purine bases and nucleotides (ATP, ADP, AMP, GTP, GDP) in heart biopsies by gradient ion-pair reversed-phase liquid chromatography. Journal of Chromatography. 1992; 575: 19-27).

For orientation: EC50 means the midpoint of the concentration-response curve.

Numbered stars: 1 amine (or outer) side, 2 acyl side, 3 side chain; on linkers, the order of the positions; unused ones are H or OH. Square brackets hold non-standard residues; d marks the D form. Side chains are listed from the residue outwards. Ends that are not written are not given here. Peptide text beside a SMILES is read from it. * marks the point of attachment. γGlu = O=C(O)[C@H](CCC(=O)[*:2])N[*:1]; Palmitoyl = CCCCCCCCCCCCCCCC(=O)*; Aib = CC(C)(N)C(=O)O

T2 sequence (P47871 26-477): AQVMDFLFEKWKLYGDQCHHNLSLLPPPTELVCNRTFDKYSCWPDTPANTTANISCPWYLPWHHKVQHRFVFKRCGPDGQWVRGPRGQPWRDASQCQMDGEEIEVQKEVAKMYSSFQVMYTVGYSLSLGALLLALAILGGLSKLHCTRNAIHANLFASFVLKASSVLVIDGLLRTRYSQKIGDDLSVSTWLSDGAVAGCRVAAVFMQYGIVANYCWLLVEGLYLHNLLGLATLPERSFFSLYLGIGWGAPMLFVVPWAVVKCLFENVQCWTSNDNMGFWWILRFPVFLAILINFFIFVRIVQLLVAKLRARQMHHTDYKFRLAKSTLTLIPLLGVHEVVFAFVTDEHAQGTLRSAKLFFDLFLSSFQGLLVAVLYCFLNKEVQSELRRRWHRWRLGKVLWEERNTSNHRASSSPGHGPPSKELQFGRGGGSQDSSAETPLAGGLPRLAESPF
T1 sequence (P43220 24-463): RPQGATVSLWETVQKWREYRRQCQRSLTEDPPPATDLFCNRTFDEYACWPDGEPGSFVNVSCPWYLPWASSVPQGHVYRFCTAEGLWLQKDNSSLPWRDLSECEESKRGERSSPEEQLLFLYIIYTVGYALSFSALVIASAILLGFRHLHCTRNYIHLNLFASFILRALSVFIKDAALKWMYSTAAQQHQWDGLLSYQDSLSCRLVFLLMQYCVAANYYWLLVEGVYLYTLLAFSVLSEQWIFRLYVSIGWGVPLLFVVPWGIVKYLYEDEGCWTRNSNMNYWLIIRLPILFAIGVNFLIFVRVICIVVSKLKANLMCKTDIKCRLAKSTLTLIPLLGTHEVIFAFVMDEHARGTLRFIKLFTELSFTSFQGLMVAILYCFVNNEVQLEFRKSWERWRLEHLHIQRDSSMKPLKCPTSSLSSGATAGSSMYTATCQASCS

As for `CC[C@H](C)[C@H](NC(=O)[C@H](Cc1ccccc1)NC(=O)[C@H](CC(=O)O)NC(=O)[C@H](CCCCN)NC(=O)[C@H](C)NC(=O)[C@H](CCCNC(=N)N)NC(=O)[C@H](CCCNC(=N)N)NC(=O)[C@H](CCC(=O)O)NC(=O)[C@H](CC(=O)O)NC(=O)[C@H](CC(C)C)NC(=O)[C@H](Cc1ccc(O)cc1)NC(=O)[C@H](CCCCN)NC(=O)[C@H](CO)NC(=O)[C@H](Cc1ccc(O)cc1)NC(=O)[C@H](CC(=O)O)NC(=O)[C@H](CO)NC(=O)[C@@H](NC(=O)[C@H](Cc1ccccc1)NC(=O)[C@@H](NC(=O)CNC(=O)[C@H](CCC(N)=O)NC(=O)[C@H](CO)NC(=O)[C@@H](N)Cc1c[nH]cn1)[C@@H](C)O)[C@@H](C)O)C(=O)N[C@@H](CCC(=O)O)C(=O)N[C@@H](Cc1c[nH]c2ccccc12)C(=O)N[C@@H](CC(C)C)C(=O)N[C@@H](CC(C)C)C(=O)N[C@@H](CO)C(=O)N[C@@H](C)C(N)=O` [Compound 35], the heart rate entry in data set [1] is “tendency”.
In the case of `CCCCCCCCCCCCCCCC(=O)N[C@@H](CCC(=O)NCCCC[C@H](NC(=O)[C@H](CO)NC(=O)[C@H](CC(=O)O)NC(=O)[C@H](CC(C)C)NC(=O)[C@H](Cc1ccc(O)cc1)NC(=O)[C@H](CCCCN)NC(=O)[C@H](CO)NC(=O)[C@H](Cc1ccc(O)cc1)NC(=O)[C@H](CC(=O)O)NC(=O)[C@H](CO)NC(=O)[C@@H](NC(=O)[C@H](Cc1ccccc1)NC(=O)[C@@H](NC(=O)CNC(=O)[C@H](CCC(N)=O)NC(=O)C(C)(C)NC(=O)[C@@H](N)Cc1c[nH]cn1)[C@@H](C)O)[C@@H](C)O)C(=O)N[C@@H](C)C(=O)N[C@@H](C)C(=O)N[C@@H](Cc1c[nH]cn1)C(=O)N[C@@H](CC(=O)O)C(=O)N[C@@H](Cc1ccccc1)C(=O)N[C@H](C(=O)N[C@@H](CCC(=O)O)C(=O)N[C@@H](Cc1c[nH]c2ccccc12)C(=O)N[C@@H](CC(C)C)C(=O)N[C@@H](CC(C)C)C(=O)N[C@@H](CCCNC(=N)N)C(=O)N[C@@H](C)C(N)=O)C(C)C)C(=O)O` [Compound 206] (H-H[Aib]QGTFTSDYSKYLDSK([γGlu-Palmitoyl])AAHDFVEWLLRA-NH2), the “duration of strokework increase” value in data set [1] (after end of compound infusion, during final vehicle infusion) was “prolonged increase in strokework that outlasted the compound infusion”. The increase in strokework in data set [1] is recorded as 40%. Also, the results for the EC50 on human GLP-1R and on human glucagon receptor were 0.09 nM and 0.16 nM, respectively.
As to “H-HSQGTFTSDYSKYLDRARADDFVAWLKST-NH2 [Compound 12]”, the “energetic state of the hearts” value in data set [2] is “not significantly different from vehicle perfused hearts”.
Turning to “H-HSQGTFTSDYSKYLDSRHAQDFVWLMNT-NH2 [Compound 244]”, the results for the EC50 on human GLP-1R and at human glucagon receptor were 0.5 nM and 0.05 nM, respectively.
With “H-HSQGTFTSDYSKYLDSRSAQDFVWLMNT-NH2 [Compound 245]”, the EC50 at human GLP-1R worked out at 0.1 nM; on human glucagon receptor it was 0.05 nM.
Taken in the same sequence, the figures for “H-HSQGTFTSDYSKYLDSRYAQDFVWLMNT-NH2 [Compound 247]” were 0.3 nM and 0.1 nM.
Consider “H-HSQGTFTSDYSRYLDSRRAQDFVWLLNK-NH2 [Compound 254]”, for which the EC50 on human GLP-1R and at human glucagon receptor was 0.2 nM throughout.
For “H-HSQGTFTSDYSRYLDSRRAQDFVWLLNT-NH2 [Compound 253]”, the values for the EC50 on human GLP-1R and on human glucagon receptor were 0.2 nM and 0.1 nM, respectively.
Consider “HSQGTFTSDYSKYLDRARADDFVAWLERA [Compound 9]”, for which, in data set [1], the increase in strokework is 40%.
As for “HSQGTFTSDYSKYLDSKAARDFVRWLKLA-NH2 [Compound 37]”, the heart rate result in data set [1] is given as “tendency”.

The values are drawn from US20130157953A1, “TREATMENT OF CARDIAC CONDITIONS” (Zealand Pharma A/S, priority 2010, published 2013).
